Experimental data from patent EP4678638A1, “NEW E3 UBIQUITIN LIGASE LIGAND, PROTEIN DEGRADATION AGENT AND USE THEREOF” (priority 2023, dated 2024).
pIC50: −log10 of the molar value. Where two headings read alike, the source gives them in different places. Values belong to the compound of their own block, whether it stands above or below them.

Assays:
[1] = system: SW620; test: CCK-8 proliferation, SW620; type: cell-based; conditions: Homo sapiens, SW-620; CCK-8; 96 hours; read-out: Inhibitory activity (IC50) on tumor cell proliferation, SW620
Method in brief: (§1)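 CCK-8 viability readout; IC50 from growth-inhibition curve fitting. Cells plated, dosed 24h later with a 10-point series, top 10µM, 5-fold steps. Culture at 37°C, 5% CO2.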

[2] = system: LNcap; test: CCK-8 proliferation, LNcap; type: cell-based; conditions: Homo sapiens; for IC50: Table B10, compounds designed based on the IRAK4 inhibitors, Lncap cells, read-out: Inhibitory activity (IC50, nM) on tumor cell proliferation, Lncap
Description: (§2) The tumor cells used herein were cultured in a cell culture medium listed in table A1 at 37°C in an incubator with 5% CO2. Prior to experimentation, all cell lines used were correctly identified by STR profiling, and tested negative for mycoplasma contamination using a mycoplasma detection kit through routine screenings. Table A1. Tumor cells and cell culture medium used in the present disclosure
(§3) IC50 values of the compounds of the present disclosure (including the compounds in Table 1, and compounds of examples) were measured using the Meilun Cell Counting Kit-8 kit from Dalian Meilun Biotech Co., Ltd. Assay details are as follows: tumor cells were seeded in a 96-well plate at a density listed in Table A2. After 24h, 100 µL of the inoculated cells were treated with 0.5µL of the compounds of the present disclosure (including the compounds in Tables 1 and 2, and compounds of examples) at 10 different successively decreasing concentrations (starting at the highest concentration of 10µM; 5-fold serial dilutions). After the cells were treated with the compounds of the present disclosure for a period of time, the cell viability detection reagent was added to the culture medium for cell viability assessment according to the instructions provided with the CCK-8 kit. […] The growth inhibition of the compounds of the present disclosure on cells was plotted by Prism Graphpad software, and the IC50 values of the compounds of the present disclosure were calculated therefrom. […] Seeding protocol and treatment time for tumor cells

[3] = system: Jurkat; test: CCK-8 proliferation, Jurkat; type: cell-based, Human; conditions: Table B10, compounds designed based on the IRAK4 inhibitors, Jurkat cells, read-out: Inhibitory activity (IC50, nM) on tumor cell proliferation, Jurkat
Method in brief: as §1

[4] = system: MV-4-11; test: CCK-8 proliferation, MV-4-11; type: cell-based, Human; conditions: Homo sapiens, MV4-11; Table B10, compounds designed based on the IRAK4 inhibitors; MV-4-11 cells; read-out: Inhibitory activity (IC50, nM) on tumor cell proliferation, MV-4-11
Method in brief: as §1

[5] = system: SR; test: CCK-8 proliferation, SR; type: cell-based, Human; conditions: Table B10, compounds designed based on the IRAK4 inhibitors, SR cells, read-out: Inhibitory activity (IC50, nM) on tumor cell proliferation, SR
Method in brief: as §1

[6] = system: CCRF-CEM; test: CCK-8 proliferation, CCRF-CEM; type: cell-based, Human; conditions: Homo sapiens; Table B10, compounds designed based on the IRAK4 inhibitors; CCRF-CEM cells; read-out: Inhibitory activity (IC50, nM) on tumor cell proliferation, CCRF-CEM
Method in brief: as §1

[7] = biological target: T1, IRAK4 (Homo sapiens, UniProt Q9NWZ3); test: Western blot degradation of IRAK4 (hPBMC); type: cell-based; conditions: Table D1
T1 construct: evaluate the effects of the compounds of the present disclosure on the expression of target proteins in cells; endogenous in cells; host or cells: hPBMC
T1 sequence (Q9NWZ3 1-460): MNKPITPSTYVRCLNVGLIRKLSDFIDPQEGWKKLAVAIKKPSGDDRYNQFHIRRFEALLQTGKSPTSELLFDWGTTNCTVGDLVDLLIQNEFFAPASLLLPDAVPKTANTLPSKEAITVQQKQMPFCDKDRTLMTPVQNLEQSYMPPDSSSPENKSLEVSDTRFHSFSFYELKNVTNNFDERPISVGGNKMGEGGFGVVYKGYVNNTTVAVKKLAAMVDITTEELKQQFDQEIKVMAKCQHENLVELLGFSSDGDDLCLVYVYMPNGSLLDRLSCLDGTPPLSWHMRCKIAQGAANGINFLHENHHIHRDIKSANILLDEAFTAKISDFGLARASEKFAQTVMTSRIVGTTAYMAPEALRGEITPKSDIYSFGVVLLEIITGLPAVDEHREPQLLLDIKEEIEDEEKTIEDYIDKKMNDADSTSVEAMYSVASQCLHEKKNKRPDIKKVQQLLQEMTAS
Method in brief: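 Degradation is assessed by immunoblotting lysates of treated cells. Target bands are quantified by grayscale and normalised to an internal control, so degradation rate equals 100% minus % remaining.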

[8] = system: MM.1S; test: CCK-8 proliferation, MM.1S; type: cell-based; conditions: Table B10, compounds designed based on the IRAK4 inhibitors, MM.1S cells, read-out: Inhibitory activity (IC50, nM) on tumor cell proliferation, MM.1S
Method in brief: as §1

[9] = system: H1299; test: CCK-8 proliferation, H1299; parameters: species or system Human; conditions: Table B10, compounds designed based on the IRAK4 inhibitors, H1299 cells, read-out: Inhibitory activity (IC50, nM) on tumor cell proliferation, H1299
Description: as §2, §3

[10] = system: MGC-803; test: CCK-8 proliferation, MGC-803 (heads: MGC80-3, MGC803); type: cell-based, Human; conditions: Table B10, compounds designed based on the IRAK4 inhibitors, MGC803 cells, read-out: Inhibitory activity (IC50, nM) on tumor cell proliferation, MGC803
Description: as §2, §3

[11] = system: DU-145; test: CCK-8 proliferation, DU-145; type: cell-based; conditions: Homo sapiens, 96 hours, read-out: Inhibitory activity (IC50) on tumor cell proliferation, DU-145
Description: as §2, §3

pIC50 [1]: 6.30 to 7.00
pIC50 ([2]; LNCaP, CCK-8, 96 hours, read-out: Inhibitory activity (IC50) on tumor cell proliferation, Lncap): 6.30 to 7.00
SMILES: CN(Cc1ccc(C2CCC(=O)NC2=O)c(F)c1)C1CCN(c2ncc(C(=O)Nc3ccc(OC(F)(F)Cl)cc3)cc2-c2cc[nH]n2)CC1 (centres unmarked) [GT-04027, N-(4-(chlorodifluoromethoxy)phenyl)-6-(4-((4-(2,6-dioxopiperidin-3-yl)-3-fluorobenzyl)(methyl)amino)piperidin-1-yl)-5-(1H-pyrazol-3-yl)nicotinamide]

IC50 ([3]; Homo sapiens): 500 to 1000 nM
IC50 [4]: 500 to 1000 nM
IC50 [2]: 500 to 1000 nM
IC50 [6]: 500 to 1000 nM
SMILES: CC(C)Nc1cc(-n2ccc3cc(C#N)cnc32)ncc1C(=O)NC1CCN(Cc2ccc(C3CCC(=O)NC3=O)cc2)CC1 (centres unmarked) [GT-04042, 6-(5-cyano-1H-pyrrolo[2,3-b]pyridin-1-yl)-N-(1-(4-(2,6-dioxopiperidin-3-yl)benzyl)piperidin-4-yl)-4-(isopropylamino)nicotinamide]
IC50 ([5]; Homo sapiens): 500 to 1000 nM

IC50 ([3]; Homo sapiens): 100 to 500 nM
IC50 [4]: 500 to 1000 nM
IC50 [2]: 500 to 1000 nM
IC50 [6]: 500 to 1000 nM
SMILES: CC(C)Nc1cc(-n2ccc3cc(C#N)cnc32)ncc1C(=O)NC1CCN(Cc2ccc(C3CCC(=O)NC3=O)c(F)c2)CC1 (centres unmarked) [GT-04043, 6-(5-cyano-1H-pyrrolo[2,3-b]pyridin-1-yl)-N-(1-(4-(2,6-dioxopiperidin-3-yl)-3-fluorobenzyl)piperidin-4-yl)-4-(isopropylamino)nicotinamide]
IC50 ([5]; Homo sapiens): 500 to 1000 nM

SMILES: O=C1CCC(c2ccc(CN3CCC(n4cc(NC(=O)c5coc(-c6ccnc(NCC7CC7)c6)n5)c(C(F)F)n4)CC3)cc2)C(=O)N1 (centres unmarked) [GT-04175, 2-(2-((cyclopropylmethyl)amino)pyridin-4-yl)-N-(3-(difluoromethyl)-1-(1-(4-(2,6-dioxopiperidin-3-yl)benzyl)piperidin-4-yl)-1H-pyrazol-4-yl)oxazole-4-carboxamide]
Degradation of substrate protein IRAK4 (substrate protein remaining %) [7]: A (A is defined as 0% ≤ substrate protein remaining % ≤ 80%)
IC50 ([3]; Homo sapiens): 100 to 500 nM
IC50 [4]: 500 to 1000 nM
IC50 [2]: 100 to 500 nM
IC50 [6]: 500 to 1000 nM

SMILES: O=C1CCC(c2ccc(CN3CCN(c4ccc(-n5cc(NC(=O)c6coc(-c7ccnc(NCC(F)(F)F)c7)n6)c(C(F)F)n5)cc4)CC3)cc2F)C(=O)N1 (centres unmarked) [GT-04274, N-(3-(difluoromethyl)-1-(4-(4-(4-(2,6-dioxopiperidin-3-yl)-3-fluorobenzyl)piperazin-1-yl)phenyl)-1H-pyrazol-4-yl)-2-(2-((2,2,2-trifluoroethyl)amino)pyridin-4-yl)oxazole-4-carboxamide]
Degradation of substrate protein IRAK4 (substrate protein remaining %) [7]: A (A is defined as 0% ≤ substrate protein remaining % ≤ 80%)
IC50 ([8]; Homo sapiens, MM1.S): 100 to 500 nM
IC50 ([3]; Homo sapiens): 500 to 1000 nM
IC50 [2]: 100 to 500 nM
IC50 [6]: 500 to 1000 nM

IC50 ([8]; Homo sapiens, MM1.S): 500 to 1000 nM
IC50 ([9]; Homo sapiens, NCI-H1299): 500 to 1000 nM
SMILES: O=C1CCN(c2ccc(CN3CCC(n4cc(NC(=O)c5coc(-c6ccnc(NCC7CC7)c6)n5)c(C(F)F)n4)CC3)cn2)C(=O)N1 [GT-04959, 2-(2-((cyclopropylmethyl)amino)pyridin-4-yl)-N-(3-(difluoromethyl)-1-(1-((6-(2,4-dioxotetrahydropyrimidin-1(2H)-yl)pyridin-3-yl)methyl)piperidin-4-yl)-1H-pyrazol-4-yl)oxazole-4-carboxamide]

SMILES: O=C1CCN(c2cccc(CN3CCN(c4ccc(-n5cc(NC(=O)c6coc(-c7ccnc(NCC8CC8)c7)n6)c(C(F)F)n5)cc4)CC3)c2)C(=O)N1 [GT-04968, 2-(2-((cyclopropylmethyl)amino)pyridin-4-yl)-N-(3-(difluoromethyl)-1-(4-(4-(3-(2,4-dioxotetrahydropyrimidin-1(2H)-yl)benzyl)piperazin-1-yl)phenyl)-1H-pyrazol-4-yl)oxazole-4-carboxamide]
Degradation of substrate protein IRAK4 (substrate protein remaining %) [7]: A (A is defined as 0% ≤ substrate protein remaining % ≤ 80%)
IC50 ([8]; Homo sapiens, MM1.S): 10 to 50 nM
IC50 ([3]; Homo sapiens): 100 to 500 nM
IC50 ([5]; Homo sapiens): 100 to 500 nM
IC50 ([9]; Homo sapiens, NCI-H1299): 100 to 500 nM
IC50 ([10]; Homo sapiens, MGC-803): 100 to 500 nM

IC50 [8]: 100 to 500 nM
IC50 [3]: 100 to 500 nM
IC50 [9]: 100 to 500 nM
IC50 [10]: 100 to 500 nM
SMILES: O=C1CCN(c2ccc(CN3CCN(c4ccc5c(c4)nc(NC(=O)c4cccc(C(F)(F)F)c4)n5[C@H]4CC[C@@H](CO)CC4)CC3)cn2)C(=O)N1 [GT-04987, N-(5-(4-((6-(2,4-dioxotetrahydropyrimidin-1(2H)-yl)pyridin-3-yl)methyl)piperazin-1-yl)-1-((1s,4s)-4-(hydroxymethyl)cyclohexyl) -1H-benzo[d]imidazol-2-yl)-3-(trifluoromethyl)benzamide]
IC50 [5]: 100 to 500 nM

pIC50 [11]: 6.30 to 7.00
SMILES: O=C1CCN(c2ccc(COc3ccc(Cl)cc3-c3nc4cc(C(F)(F)F)cc(Cl)c4[nH]3)cc2)C(=O)N1 [GT-06479, 1-(4-((4-chloro-2-(7-chloro-5-(trifluoromethyl)-1H-benzo[d]imidazol-2-yl)phenoxy)methyl)phenyl)dihydropyrimidine-2,4(1H,3H)-dione]

pIC50 [11]: 6.30 to 7.00
SMILES: O=C1CCN(c2cccc(COc3ccc(Cl)cc3-c3nc4cc(C(F)(F)F)cc(Cl)c4[nH]3)c2)C(=O)N1 [GT-06480, 1-(3-((4-chloro-2-(7-chloro-5-(trifluoromethyl)-1H-benzo[d]imidazol-2-yl)phenoxy)methyl)phenyl)dihydropyrimidine-2,4(1H,3H)-dione]

pIC50 [11]: 7.00 to 7.30
SMILES: O=C1CCN(c2ccc(COc3ccc(Cl)cc3-c3nc4cc(C(F)(F)F)cc(Cl)c4[nH]3)cn2)C(=O)N1 [GT-06481, 1-(5-((4-chloro-2-(7-chloro-5-(trifluoromethyl)-1H-benzo[d]imidazol-2-yl)phenoxy)methyl)pyridin-2-yl)dihydropyrimidine-2,4(1H,3H)-dione]
